Series [1] is described as follows: Test for metabolic stability, liver microsomes. Particulars: for Slope (−k): rat liver microsomes; for half-life / microsomal CLint: rat, pH 7.4.
Description: The assay was performed with liver microsomes of rats.
The incubation solution (180 μl) consists of 90 μl of a microsomal suspension of 0.33 mg/ml protein in 100 mM phosphate buffer, pH 7.4, with 90 μl NADP-regenerating system (NADP: 1 mM, glucose-6-phosphate 5 mM, glucose-6-phosphate dehydrogenase: 5 U/ml, MgCl2 5 mM).
The reaction is started by adding 20 μl of the compound to be tested in 20% ACN to the microsome/buffer mixture preincubated at 37° C. After 0, 15, 30 and 60 minutes, 200 μl of sample solution is withdrawn and subjected to ACN precipitation. The isolation of the compounds is effected by adding 200 μl ACN that contains the internal standard (1 μM) to 200 μl of sample solution and calibration standard. After shaking for 10 s and centrifugation at 4000 g, an aliquot of the supernatant is subjected to LC-MS/MS. Two controls are included, namely a positive control with 7-ethoxycoumarin as a reference to verify the microsomal enzyme activity, and a negative control in which microsomes are used that were heated for 25 minutes without a regenerating system, in order to ensure that the loss of substance is actually due to metabolization.
The amount of compound in a sample is expressed as the percent fraction of the compound remaining as compared to time t=0 (100%). The percent fraction is plotted versus time.
Series [2] relates to CaCo-2 cells. The series is described as follows: CaCo-2 assay (transport experiments). The series is classed as in vitro ADME. Particulars: for Permeability: class in words; for final basolateral concentration [μM ± SD]: initial donor concentration 50 μM. On the procedure: (§1) Four reference compounds (atenolol, testosterone, ketoprofene and erythromycin) were employed in each assay for evaluating the transport properties of the CaCo-2 cells. The initial concentration of the compounds in the donor compartment was 50 μM (in buffer with 1% ethanol or DMSO). […] For glycoprotein P (P-gp) studies, bidirectional experiments were performed. The absorptive and secretory permeabilities (Papp(a-b) and Papp(b-a)) were determined. Thus, erythromycin was used as a substrate, and verapamil was used as an inhibitor of P-gp. Each experiment was performed in triplicate. The integrity of the monolayer was determined by means of TEER (transepithelial electric resistance) and the permeability for each assay was determined using Lucifer Yellow. All samples of the CaCo-2 transport experiments were analyzed by means of LC/MS/MS after dilution with buffer (1:1 with 2% acetic acid).

A short description of series [3]: CaCo-2 assay (transport experiments). Format: in vitro ADME. As to conditions: human, Caco-2; initial donor concentration 50 μM. On the procedure:
as §1

The target in series [4] is 17β-HSD1 (Homo sapiens (Human), UniProt P14061). The series is described as follows: 17β-HSD1 test assay (recombinant protein from Sf9 insect cells, 3H-estrone/NADPH). The series is classed as biochemical. Particulars: for inhibition at 1 µM: read-out: HSD 1 μM (% inhibition of HSD1); for inhibition at 0.1 µM: read-out: HSD1 100 nM (% inhibition). The method in brief:
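Sf9-expressed recombinant enzyme (0.1 μg/ml) with 30 nM 3H-estrone and 1 mM NADPH in 20 mM KH2PO4 pH 7.4, 30 min at RT; inhibitor at 1 μM or 100 nM, 1% DMSO final. Quenched with TCA; conversion measured by reversed-phase HPLC with flow scintillation detection.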

The target of series [5] is estrogen receptor β (Homo sapiens (Human), UniProt Q92731). The series is described as follows: Estrogen receptor binding assay, ERβ. As to conditions: relative binding affinity (estradiol: 100%).
Chain of estrogen receptor β (Q92731 whole entry): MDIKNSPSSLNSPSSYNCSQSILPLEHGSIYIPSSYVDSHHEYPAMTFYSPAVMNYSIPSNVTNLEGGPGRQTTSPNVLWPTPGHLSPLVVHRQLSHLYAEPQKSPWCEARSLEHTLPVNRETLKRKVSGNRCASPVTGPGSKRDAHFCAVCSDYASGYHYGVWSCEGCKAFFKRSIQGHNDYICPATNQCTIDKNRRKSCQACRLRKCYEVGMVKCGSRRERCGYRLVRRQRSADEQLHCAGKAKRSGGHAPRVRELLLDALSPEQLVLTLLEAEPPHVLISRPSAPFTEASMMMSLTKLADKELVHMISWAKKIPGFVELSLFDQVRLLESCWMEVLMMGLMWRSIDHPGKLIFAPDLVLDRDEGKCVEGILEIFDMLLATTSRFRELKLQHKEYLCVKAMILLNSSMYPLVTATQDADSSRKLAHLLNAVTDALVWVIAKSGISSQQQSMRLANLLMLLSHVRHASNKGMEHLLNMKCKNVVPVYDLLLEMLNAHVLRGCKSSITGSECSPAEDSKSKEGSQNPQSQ
The nature of series [6]: In vivo pharmacokinetics (rat), cassette dosing method. As to conditions: cassette dosing perorally 10 mg/kg, male Wistar rats; for AUC(0-t) / Tmax / AUC(0-inf): rat, plasma, po; for AUC(0-inf): extrapolated to ∞. The source says:
Labrasol/water 1/1). The plasma profiles were established by means of LC-MS/MS.

The target in series [7] is estrogen receptor α (Homo sapiens (Human), UniProt P03372). The series is described as follows: Estrogen receptor binding assay, ERα. Particulars: relative binding affinity (estradiol: 100%).
Chain of estrogen receptor α (P03372 whole entry): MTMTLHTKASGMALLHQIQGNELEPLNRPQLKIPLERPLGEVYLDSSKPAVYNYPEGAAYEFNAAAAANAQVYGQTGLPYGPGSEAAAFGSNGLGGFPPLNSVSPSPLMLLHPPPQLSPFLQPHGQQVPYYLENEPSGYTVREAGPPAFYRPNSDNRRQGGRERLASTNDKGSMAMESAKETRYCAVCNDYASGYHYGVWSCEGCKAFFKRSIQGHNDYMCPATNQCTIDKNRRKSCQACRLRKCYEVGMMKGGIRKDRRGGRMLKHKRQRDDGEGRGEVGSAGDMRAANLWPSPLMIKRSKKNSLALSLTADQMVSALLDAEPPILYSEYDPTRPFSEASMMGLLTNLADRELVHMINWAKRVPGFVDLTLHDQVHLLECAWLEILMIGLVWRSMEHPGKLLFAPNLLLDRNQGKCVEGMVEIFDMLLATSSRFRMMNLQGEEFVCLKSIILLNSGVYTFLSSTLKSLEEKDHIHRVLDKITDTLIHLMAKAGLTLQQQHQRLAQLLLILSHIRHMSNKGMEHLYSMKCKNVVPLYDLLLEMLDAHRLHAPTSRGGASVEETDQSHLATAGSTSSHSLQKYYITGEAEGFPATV
In series [8] the target is CYP2D6 (Homo sapiens (Human), UniProt P10635). The series is described as follows: P450 inhibition assay CYP2D6. Format: biochemical. Particulars: read-out: IC50 (mean ± SD) [μM] CYP2D6.
Chain of CYP2D6 (P10635 whole entry): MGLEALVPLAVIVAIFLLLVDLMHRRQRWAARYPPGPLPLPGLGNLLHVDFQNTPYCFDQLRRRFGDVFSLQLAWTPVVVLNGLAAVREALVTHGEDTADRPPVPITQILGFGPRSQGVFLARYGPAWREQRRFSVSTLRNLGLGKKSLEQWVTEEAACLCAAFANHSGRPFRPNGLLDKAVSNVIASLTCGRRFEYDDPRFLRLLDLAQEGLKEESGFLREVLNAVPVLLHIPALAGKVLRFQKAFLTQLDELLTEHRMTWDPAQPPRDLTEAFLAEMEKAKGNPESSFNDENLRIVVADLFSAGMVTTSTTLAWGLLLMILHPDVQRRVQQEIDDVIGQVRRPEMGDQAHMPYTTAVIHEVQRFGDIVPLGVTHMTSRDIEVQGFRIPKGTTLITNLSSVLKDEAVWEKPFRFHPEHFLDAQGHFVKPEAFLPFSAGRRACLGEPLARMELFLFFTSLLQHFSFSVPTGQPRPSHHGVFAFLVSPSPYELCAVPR
The target of series [9] is 17β-HSD2 (Homo sapiens (Human), UniProt P37059). The series is described as follows: 17β-HSD2 test assay (recombinant protein from Sf9 insect cells, 3H-estradiol/NAD+). Format: biochemical. Particulars: for inhibition at 0.1 µM: read-out: HSD2 100 nM (% inhibition); for inhibition at 1 µM: read-out: HSD2 1 μM (% inhibition). On the procedure: Recombinant protein obtained from Sf9 insect cells (0.1 μg/ml) is incubated with 20 mM KH2PO4, pH 7.4, 30 nM ^3H-estradiol and 1 mM NAD+ for 30 min at RT in the presence of the potential inhibitor in a concentration of 1 μM or 100 nM. The stock solutions of the compounds are prepared in DMSO so that the final concentration of DMSO in the sample is 1%. After the prescribed incubation time, the reaction is quenched by adding trichloroacetic acid (10% final concentration). The samples are centrifuged in microtitration plates at 400 rpm for 10 min, and the supernatants are charged on a reversed-phase HPLC equipped with a Waters Symmetrie C18 column and
Chain of 17β-HSD2 (P37059 whole entry): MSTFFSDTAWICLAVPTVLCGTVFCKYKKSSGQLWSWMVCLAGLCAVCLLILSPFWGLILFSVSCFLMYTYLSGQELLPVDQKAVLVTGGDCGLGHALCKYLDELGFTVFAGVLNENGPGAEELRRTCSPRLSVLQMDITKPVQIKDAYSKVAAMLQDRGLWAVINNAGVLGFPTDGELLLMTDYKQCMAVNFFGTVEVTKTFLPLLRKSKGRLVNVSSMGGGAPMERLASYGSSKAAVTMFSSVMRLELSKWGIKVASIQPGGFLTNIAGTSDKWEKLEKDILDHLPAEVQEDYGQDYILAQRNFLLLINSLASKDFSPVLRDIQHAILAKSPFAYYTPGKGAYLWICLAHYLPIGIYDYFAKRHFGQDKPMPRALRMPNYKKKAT
Waters Sentry Guard column. The isocratic HPLC run is performed at RT with a flow rate of 1 ml/min and acetonitrile/water 48:52 as the eluent. The radioactivity was measured by means of a Packard Flow Scintillation Analyzer. The percent inhibition was calculated by means of the formulas stated above.

Series [10] concerns the target CYP3A4 (Homo sapiens (Human), UniProt P08684). The series is described as follows: P450 inhibition assay CYP3A4. Format: biochemical. As to conditions: read-out: IC50 (mean ± SD) [μM] CYP3A4.
The target in series [11] is CYP2C19 (Homo sapiens (Human), UniProt P33261). The series is described as follows: P450 inhibition assay CYP2C19.
Chain of CYP2C19 (P33261 whole entry): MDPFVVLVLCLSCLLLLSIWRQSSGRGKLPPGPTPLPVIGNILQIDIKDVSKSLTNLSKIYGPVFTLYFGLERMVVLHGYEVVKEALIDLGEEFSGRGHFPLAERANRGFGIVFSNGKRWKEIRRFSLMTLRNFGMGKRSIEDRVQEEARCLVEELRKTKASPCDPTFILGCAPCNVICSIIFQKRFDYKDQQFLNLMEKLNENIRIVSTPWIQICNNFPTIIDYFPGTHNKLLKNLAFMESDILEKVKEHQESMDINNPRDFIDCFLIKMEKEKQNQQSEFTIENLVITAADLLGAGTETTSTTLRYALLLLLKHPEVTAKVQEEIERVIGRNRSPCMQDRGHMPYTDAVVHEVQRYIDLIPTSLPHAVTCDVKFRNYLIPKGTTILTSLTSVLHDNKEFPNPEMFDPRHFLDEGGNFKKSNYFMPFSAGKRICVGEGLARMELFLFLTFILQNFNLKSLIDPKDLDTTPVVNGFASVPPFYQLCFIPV
Series [12] addresses CYP2C9 (Homo sapiens (Human), UniProt P11712). The series is described as follows: P450 inhibition assay CYP2C9.
For series [13], the target named is CYP1A2 (Homo sapiens (Human), UniProt P05177). The series is described as follows: P450 inhibition assay CYP1A2.
Chain of CYP1A2 (P05177 whole entry): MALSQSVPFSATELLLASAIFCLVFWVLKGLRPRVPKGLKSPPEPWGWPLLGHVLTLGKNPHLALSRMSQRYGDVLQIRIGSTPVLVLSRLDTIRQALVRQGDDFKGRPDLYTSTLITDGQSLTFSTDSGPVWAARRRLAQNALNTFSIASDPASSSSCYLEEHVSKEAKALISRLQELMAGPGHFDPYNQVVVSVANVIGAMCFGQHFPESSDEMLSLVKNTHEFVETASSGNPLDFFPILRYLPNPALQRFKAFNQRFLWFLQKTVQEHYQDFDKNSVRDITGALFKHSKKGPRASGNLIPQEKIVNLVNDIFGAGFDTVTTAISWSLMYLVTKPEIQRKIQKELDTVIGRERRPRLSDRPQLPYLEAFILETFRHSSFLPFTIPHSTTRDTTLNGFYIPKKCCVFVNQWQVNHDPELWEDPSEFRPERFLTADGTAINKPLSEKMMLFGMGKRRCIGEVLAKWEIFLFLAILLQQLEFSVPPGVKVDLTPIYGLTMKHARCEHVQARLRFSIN
Series [14] in a line: In vivo pharmacokinetics (rat), single oral administration. Particulars: single oral administration 50 mg/kg, male Wistar rats; for AUC(0-t) / Tmax / AUC(0-inf): rat, plasma; for AUC(0-inf): extrapolated to ∞.
For series [15], the target named is CYP2B6 (Homo sapiens (Human), UniProt P20813). The series is described as follows: P450 inhibition assay CYP2B6.
Chain of CYP2B6 (P20813 whole entry): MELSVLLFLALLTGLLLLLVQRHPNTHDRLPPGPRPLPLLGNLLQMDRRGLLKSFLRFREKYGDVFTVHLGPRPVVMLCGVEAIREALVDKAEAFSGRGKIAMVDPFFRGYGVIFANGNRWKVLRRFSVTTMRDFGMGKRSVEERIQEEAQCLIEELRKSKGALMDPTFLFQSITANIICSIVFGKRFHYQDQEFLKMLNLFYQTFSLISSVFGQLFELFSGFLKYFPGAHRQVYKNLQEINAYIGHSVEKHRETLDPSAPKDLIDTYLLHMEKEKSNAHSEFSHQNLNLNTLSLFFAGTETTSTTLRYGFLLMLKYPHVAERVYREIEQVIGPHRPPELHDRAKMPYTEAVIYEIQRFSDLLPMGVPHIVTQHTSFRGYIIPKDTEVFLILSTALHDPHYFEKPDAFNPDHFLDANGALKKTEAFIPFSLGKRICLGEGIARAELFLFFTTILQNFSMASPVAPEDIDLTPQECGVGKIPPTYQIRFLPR

Like-named read-outs stand apart in the source and are kept apart here.

Chain of CYP3A4 (P08684 whole entry): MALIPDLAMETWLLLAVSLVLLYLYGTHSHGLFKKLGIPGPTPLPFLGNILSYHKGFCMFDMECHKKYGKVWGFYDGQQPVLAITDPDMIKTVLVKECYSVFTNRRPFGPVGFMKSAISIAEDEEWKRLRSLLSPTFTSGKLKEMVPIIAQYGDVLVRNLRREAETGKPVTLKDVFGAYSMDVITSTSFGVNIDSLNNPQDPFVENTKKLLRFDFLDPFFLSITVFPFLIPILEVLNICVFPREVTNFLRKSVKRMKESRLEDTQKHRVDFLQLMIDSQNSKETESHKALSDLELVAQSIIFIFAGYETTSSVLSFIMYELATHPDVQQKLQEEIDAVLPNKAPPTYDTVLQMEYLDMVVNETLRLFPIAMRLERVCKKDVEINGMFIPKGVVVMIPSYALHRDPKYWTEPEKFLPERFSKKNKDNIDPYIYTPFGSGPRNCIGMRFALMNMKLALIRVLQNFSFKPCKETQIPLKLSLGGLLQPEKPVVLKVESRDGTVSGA
Chain of 17β-HSD1 (P14061 whole entry): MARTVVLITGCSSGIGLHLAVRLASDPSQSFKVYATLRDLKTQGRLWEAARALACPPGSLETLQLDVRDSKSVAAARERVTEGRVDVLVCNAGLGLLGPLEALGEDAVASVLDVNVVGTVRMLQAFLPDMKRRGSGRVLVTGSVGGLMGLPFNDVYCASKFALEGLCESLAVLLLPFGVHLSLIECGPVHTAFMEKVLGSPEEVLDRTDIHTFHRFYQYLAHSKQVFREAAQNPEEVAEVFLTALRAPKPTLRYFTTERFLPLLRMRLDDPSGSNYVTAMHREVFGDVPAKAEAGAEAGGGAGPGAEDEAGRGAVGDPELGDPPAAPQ
Chain of CYP2C9 (P11712 whole entry): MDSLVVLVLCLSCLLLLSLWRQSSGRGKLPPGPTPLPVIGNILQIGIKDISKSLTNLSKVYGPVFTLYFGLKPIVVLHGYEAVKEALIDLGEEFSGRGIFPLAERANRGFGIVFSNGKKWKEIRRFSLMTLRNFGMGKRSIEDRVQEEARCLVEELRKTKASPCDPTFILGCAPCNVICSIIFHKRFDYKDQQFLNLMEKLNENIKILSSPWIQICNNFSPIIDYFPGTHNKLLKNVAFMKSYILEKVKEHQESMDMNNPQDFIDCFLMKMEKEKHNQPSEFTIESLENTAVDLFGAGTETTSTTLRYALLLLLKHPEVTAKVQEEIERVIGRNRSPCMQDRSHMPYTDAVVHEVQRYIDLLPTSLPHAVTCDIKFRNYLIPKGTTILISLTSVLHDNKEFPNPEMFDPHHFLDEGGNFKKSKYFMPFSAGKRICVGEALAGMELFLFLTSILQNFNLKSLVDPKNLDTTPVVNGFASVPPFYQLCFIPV

For the compound `Oc1cccc(-c2ccc3cc(O)ccc3c2)c1` [Compound 19, 6-(3-Hydroxyphenyl)-2-naphthol], the “Slope (−k)” value in [1] is on record as −0.055. In [1] (microsomes), the half-life – broadly, the time needed for the level to fall by half in the phase considered – is 0.21 h and the microsomal CLint – broadly, the capacity of the preparation to metabolise the compound, expressed as a volume cleared per time – came to 367 µL/min/mg. Besides, in series [2], the “mass balance [% ± SD]” value is listed as 37.5 ± 3.0%, the Permeability entry is “moderate” and the “final basolateral concentration [μM ± SD]” value is 6.5 ± 0.2 µM. Besides, the Papp (in general, the rate of passage across a membrane or cell layer, normalised by area and donor concentration) at 180 min, 50 μM in series [3] turned out to be 8.9 ×10⁻⁶ cm/s. Besides, the inhibition (in general, the percentage by which the read-out fell short of the control) at 1 µM in [4] (inhibitor 1 μM) is 94%. Moreover, the inhibition at 0.1 µM in series [4] (inhibitor 100 nM) came out at 91.4%. Moreover, the “RBA ERβ [%]” value in series [5] is listed as 0.80%. Besides, in [6], the “T1/2z” value worked out at 4.4 h; the “tz” value came out at 24.0 h; the exposure AUC(0-t) – broadly, exposure summed from dosing to a finite time, without extrapolation to infinity – is 29700 ng·h/mL; the Tmax (in general, the time from dosing to the highest level) stood at 6 h. In [6], the total exposure AUC(0-inf) – broadly, the area under the concentration-time curve extrapolated to infinity – is 30700 ng·h/mL. For the same compound, in series [7], the “RBA ERα [%]” value was 0.23%. In series [8], the IC50 – broadly, the concentration needed to halve the response being measured – came to 32.6 ± 0.72 µM. In addition, the inhibition at 0.1 µM in series [9] (inhibitor 100 nM) is 12.4%. For the same compound, the inhibition at 1 µM in series [9] (inhibitor 1 μM) was 16.6%.
Turning to `O=C(Nc1ccccc1)c1c(O)ccc2cc(-c3cccc(O)c3)ccc12` [Compound 42, 2-Hydroxy-6-(3-hydroxyphenyl)-N-phenyl-1-naphthamide], in [2], the “mass balance [% ± SD]” value turned out to be 7.6 ± 0.5%, the Permeability entry is reported as “moderate” and the “final basolateral concentration [μM ± SD]” value worked out at 1.1 ± 0.1 µM. The compound further registered a Papp at 180 min, 50 μM in series [3] of 1.5 ×10⁻⁶ cm/s. In addition, in series [4] (inhibitor 1 μM), the inhibition at 1 µM was 80.2%. Further, the inhibition at 0.1 µM in [4] (inhibitor 100 nM) was 40%. Further, in [9] (inhibitor 100 nM), the inhibition at 0.1 µM is under 10%. In addition, the inhibition at 1 µM in series [9] (inhibitor 1 μM) was determined as 16.3%.
For the compound `N#Cc1cc(O)cc2ccc(-c3cccc(O)c3)cc12` [Compound 54, 3-Hydroxy-7-(3-hydroxyphenyl)-1-naphthonitrile], the 50% inhibitory concentration (IC50) in series [10] was 2.05 ± 0.18 µM; in series [11], 1.21 ± 0.19 µM; in [12], 0.224 ± 0.002 µM; in series [13], 0.259 ± 0.01 µM. For the same compound, the “mass balance [% ± SD]” value in series [2] is 30.5 ± 3.1%. Besides, the Permeability entry in series [2] is “moderate”. Moreover, the “final basolateral concentration [μM ± SD]” value in series [2] was found to be 3.7 ± 0.3 µM. This compound also came in with a Papp at 180 min, 50 μM in series [3] of 4.4 ×10⁻⁶ cm/s. The inhibition at 1 µM in series [4] (inhibitor 1 μM) worked out at 94%. In [4] (inhibitor 100 nM), the inhibition at 0.1 µM was found to be 83%.
Regarding `Oc1cccc(-c2ccc3c(-c4cccnc4)c(O)ccc3c2)c1` [Compound 59, 6-(3-Hydroxyphenyl)-1-(pyridin-3-yl)naphthalene-2-ol], the half-maximal inhibitory concentration (IC50) in series [10] is 0.221 ± 0.002 µM. The “Slope (−k)” value in series [1] is on record as −0.051. In series [1] (liver microsomes), this compound had a half-life of 0.227 h and an intrinsic metabolic clearance (microsomal CLint) of 340 µL/min/mg. In series [11] (read-out: IC50 (mean ± SD) [μM] CYP2C19), the IC50 is 0.88 ± 0.03 µM. Moreover, the concentration for half-maximal inhibition (IC50) in series [12] (read-out: IC50 (mean ± SD) [μM] CYP2C9) amounted to 0.15 ± 0.03 µM. In [2], the “mass balance [% ± SD]” value was determined as 29.9 ± 2.4%, the Permeability entry is given as “high” and the “final basolateral concentration [μM ± SD]” value is 11.0 ± 0.5 µM. The compound also displayed a Papp at 180 min, 50 μM in series [3] of 13.8 ×10⁻⁶ cm/s. For the same compound, in series [4], the inhibition at 1 µM was determined as 92.3% and the inhibition at 0.1 µM was determined as 87.4%. Also, in [14], the AUC(0-t) is 203 ng·h/mL, the time to peak (Tmax) was determined as 2 h, the area under the curve AUC(0-inf) is 203 ng·h/mL and the “t1/2z” value amounted to 1.54 h. Besides, the “tz” value in [14] turned out to be 8.0 h. The 50% inhibitory concentration (IC50) in series [13] is 0.014 µM. In addition, the IC50 in series [8] came out at 22.9 ± 1.85 µM. In addition, in series [9] (inhibitor 100 nM), the inhibition at 0.1 µM turned out to be 66.1%. Moreover, the inhibition at 1 µM in [9] (inhibitor 1 μM) came out at 90.3%. For the same compound, the IC50 in [15] (read-out: IC50 (mean ± SD) [μM] CYP2B6) came to 5.34 ± 0.391 µM.
Turning to `COc1ccc(-c2c(O)ccc3cc(-c4cccc(O)c4)ccc23)cn1` [Compound 62, 6-(3-Hydroxyphenyl)-1-(6-methoxypyridin-3-yl)naphthalene-2-ol], the IC50 was determined as 1.07 ± 0.05 µM in series [10], 40 ± 0.08 µM in series [8] and 10.4 ± 0.14 µM in [15]. The “Slope (−k)” value in series [1] is given as −0.014. The compound further had an intrinsic clearance (microsomal CLint) in series [1] (liver microsomes) of 92.8 µL/min/mg. Besides, the inhibition at 1 µM was found to be 89.2% in [4] (inhibitor 1 μM) and 67.2% in series [9]. Further, the results for the inhibition at 0.1 µM in series [4] (inhibitor 100 nM) and in series [9] were 85.9% and 24.3%, respectively.
Regarding `Nc1cccc(-c2c(O)ccc3cc(-c4cccc(O)c4)ccc23)c1` [Compound 68, 1-(3-Aminophenyl)-6-(3-hydroxyphenyl)naphthalene-2-ol], in series [2], the “mass balance [% ± SD]” value was 52.7 ± 3.6%, the Permeability entry was “high” and the “final basolateral concentration [μM ± SD]” value came to 13.9 ± 0.8 µM. Also, the Papp at 180 min, 50 μM in series [3] was 16.4 ×10⁻⁶ cm/s. Also, the inhibition at 1 µM in series [4] (inhibitor 1 μM) worked out at 87.3%. In series [4] (inhibitor 100 nM), the inhibition at 0.1 µM is 74.1%. In addition, in series [14], the AUC(0-t) came to 337 ng·h/mL, the Tmax amounted to 2 h, the total exposure AUC(0-inf) is 337 ng·h/mL and the “t1/2z” value came to 1.59 h. Besides, the “tz” value in [14] is 8.0 h. For the same compound, in [6], the “T1/2z” value is recorded as 2.4 h, the “tz” value came out at 24.0 h, the AUC(0-t) was determined as 539 ng·h/mL and the Tmax came out at 2 h. Also, the total exposure AUC(0-inf) in series [6] was 540 ng·h/mL. In addition, the inhibition at 0.1 µM in series [9] (inhibitor 100 nM) was under 10%. In series [9] (inhibitor 1 μM), the inhibition at 1 µM was 39.1%.

Values taken from patent US8546392B2, “17Beta-hydroxysteroid dehydrogenase type 1 inhibitors for the treatment of hormone-related diseases” (Universitaet des Saarlandes, priority 2008, dated 2013).
